In US20140271474A1, “INHIBITOR PROBES FOR IMAGING SODIUM-GLUCOSE COTRANSPORTERS IN HEALTH AND DISEASE” (THE REGENTS OF THE UNIVERSITY OF CALIFORNIA, priority 2011, published 2014):
Each block holds one compound with its values, some of them ahead of it.

Experiments:
SGLTs = conditions: cited from earlier work
SGLT2 over SGLT1 = conditions: cited from earlier work
SGLT2 [1] = target: T1, SGLT2 (Rattus norvegicus, UniProt P53792)
T1 sequence (P53792 1-670): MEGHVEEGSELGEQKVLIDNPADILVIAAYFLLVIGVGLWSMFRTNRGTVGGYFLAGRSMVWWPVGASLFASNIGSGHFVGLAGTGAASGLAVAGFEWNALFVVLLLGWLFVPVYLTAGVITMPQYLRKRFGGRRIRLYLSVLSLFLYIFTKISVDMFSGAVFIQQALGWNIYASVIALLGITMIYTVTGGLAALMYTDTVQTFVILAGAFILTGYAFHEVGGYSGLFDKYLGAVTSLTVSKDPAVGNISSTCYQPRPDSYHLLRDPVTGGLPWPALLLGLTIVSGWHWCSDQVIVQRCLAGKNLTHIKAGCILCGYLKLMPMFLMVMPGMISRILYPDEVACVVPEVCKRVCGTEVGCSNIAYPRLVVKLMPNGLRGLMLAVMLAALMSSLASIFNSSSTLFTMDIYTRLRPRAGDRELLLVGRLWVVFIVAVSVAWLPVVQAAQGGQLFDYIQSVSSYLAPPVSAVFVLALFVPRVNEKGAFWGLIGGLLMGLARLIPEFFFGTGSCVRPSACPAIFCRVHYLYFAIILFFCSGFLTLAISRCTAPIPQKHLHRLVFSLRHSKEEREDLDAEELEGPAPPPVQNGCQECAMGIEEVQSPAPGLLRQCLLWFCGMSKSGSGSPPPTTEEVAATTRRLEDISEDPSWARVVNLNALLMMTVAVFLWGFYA

[2] = cited from earlier work
SGLT2 [3] = target: SGLT2 (Homo sapiens, UniProt P31639); conditions: read-out: Ki for SGLT2
Source text: A method of making radiolabeled inhibitors pyranosides is also provided.

SGLT1 = target: T2, SGLT1 (Homo sapiens, UniProt P13866); conditions: specific, non-metabolized substrate; cited from earlier work
T2 sequence (P13866 1-664): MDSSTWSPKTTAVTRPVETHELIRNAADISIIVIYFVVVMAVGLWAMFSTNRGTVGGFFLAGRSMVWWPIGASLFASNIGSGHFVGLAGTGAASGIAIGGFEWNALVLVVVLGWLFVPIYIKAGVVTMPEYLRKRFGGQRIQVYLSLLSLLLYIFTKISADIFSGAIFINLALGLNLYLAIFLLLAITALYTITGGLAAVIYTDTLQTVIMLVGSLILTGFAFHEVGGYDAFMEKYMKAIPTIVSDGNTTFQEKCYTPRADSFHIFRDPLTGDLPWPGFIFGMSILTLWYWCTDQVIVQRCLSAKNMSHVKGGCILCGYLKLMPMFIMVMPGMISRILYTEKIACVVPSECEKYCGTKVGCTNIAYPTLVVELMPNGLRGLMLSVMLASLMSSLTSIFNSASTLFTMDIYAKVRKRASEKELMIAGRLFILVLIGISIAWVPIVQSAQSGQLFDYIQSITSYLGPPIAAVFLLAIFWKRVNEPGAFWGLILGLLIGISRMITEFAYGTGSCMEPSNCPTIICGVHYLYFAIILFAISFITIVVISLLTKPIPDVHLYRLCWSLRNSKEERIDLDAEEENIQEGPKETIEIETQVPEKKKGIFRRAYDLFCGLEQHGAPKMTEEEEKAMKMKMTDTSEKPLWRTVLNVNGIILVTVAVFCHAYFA

GLUTs = conditions: cited from earlier work
[4] = major metabolite of dapagliflozin; cited from earlier work
[5] = for 1-25 hours after oral administration of dapagliflozin; cited from earlier work
[6] = cited from earlier work; remark: listed apart in the source
[7] = images summed 50-60 minutes post injection
[8] = type 2 diabetic patients, tested doses

Chain of SGLT2 (Homo sapiens, UniProt P31639) (P31639 whole entry): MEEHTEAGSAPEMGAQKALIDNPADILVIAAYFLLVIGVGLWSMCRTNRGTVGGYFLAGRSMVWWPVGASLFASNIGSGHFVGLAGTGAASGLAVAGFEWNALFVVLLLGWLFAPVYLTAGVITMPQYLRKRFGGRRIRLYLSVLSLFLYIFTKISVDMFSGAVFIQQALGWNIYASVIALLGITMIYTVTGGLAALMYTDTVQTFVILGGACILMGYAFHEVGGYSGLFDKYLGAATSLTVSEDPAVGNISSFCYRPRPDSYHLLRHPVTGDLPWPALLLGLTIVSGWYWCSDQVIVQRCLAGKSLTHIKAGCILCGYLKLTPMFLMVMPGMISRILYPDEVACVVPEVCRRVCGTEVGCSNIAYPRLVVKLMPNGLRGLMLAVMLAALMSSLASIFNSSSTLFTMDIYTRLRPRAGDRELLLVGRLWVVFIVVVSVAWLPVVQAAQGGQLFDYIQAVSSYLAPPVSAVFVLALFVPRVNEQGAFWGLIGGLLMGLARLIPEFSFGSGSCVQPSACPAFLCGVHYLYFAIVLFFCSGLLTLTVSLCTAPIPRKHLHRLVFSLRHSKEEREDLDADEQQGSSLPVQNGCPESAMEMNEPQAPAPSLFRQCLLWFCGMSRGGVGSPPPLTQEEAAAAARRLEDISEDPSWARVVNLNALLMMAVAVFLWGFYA

Structure (SMILES): O=C[C@H]([18F])[C@@H](O)[C@H](O)[C@H](O)CO [2-FDG, 2-deoxy-2-[18F]fluoro-D-glucose]
substrate for SGLTs (SGLTs): not a substrate

Structure (SMILES): O=CC[C@@H](O)[C@H](O)[C@H](O)CO [2-deoxy-D-glucose]
substrate for SGLTs (SGLTs): poor substrates

Structure (SMILES): Cc1cc(OCCCNCC(C)(C)C(N)=O)ccc1Cc1c(O[C@@H]2O[C@H](CO)[C@@H](O)[C@H](O)[C@H]2O)n[nH]c1C(C)C [DSP-3235]
selectivity among SGLTs (in words) (SGLT2 over SGLT1): targets SGLT1

[18F]-dapagliflozin binding to the kidney cortex after pre-injection of the substance (SGLT2 [1]; [7]): completely blocked
Structure (SMILES): O=C(CCc1ccc(O)cc1)c1c(O)cc(O)cc1O[C@@H]1O[C@H](CO)[C@@H](O)[C@H](O)[C@H]1O [Phlorizin]

Structure (SMILES): COC(=O)OC[C@H]1O[C@@H](Oc2cc(C)cc(O)c2C(=O)CCc2ccc3occc3c2)[C@H](O)[C@@H](O)[C@@H]1O [T-1095]
selectivity among SGLTs (in words) (SGLT2 over SGLT1): nonselective | blood glucose levels ([2]; diabetic animals): lowered blood glucose levels | renal glucose excretion ([2]; diabetic animals): resulted in renal glucose excretion | hyperinsulinemia and hypertriglyceridemia ([2]; diabetic rodents): reduced hyperinsulinemia and hypertriglyceridemia | post-prandial hyperglycemia ([2]; diabetic rodents): suppressed post-prandial hyperglycemia | absorption of the pro-drug ([2]; oral): absorbed from the gut into the circulation

Ki (SGLT2 [3]): 1 to 5 nM
Structure (SMILES): CCOc1ccc(Cc2cc([C@@H]3O[C@H](CO)[C@@H](F)[C@H](O)[C@H]3O)ccc2Cl)cc1 [[18F]-dapagliflozin, (1S)-1,5-anhydro-1-C-{4-chloro-3-[(4-ethoxyphenyl)methyl]phenyl}-4-[18F]-4-deoxy-D-glucitol]

Structure (SMILES): CCOc1ccc(Cc2cc([C@@H]3O[C@H](CO)[C@@H]([18F])[C@H](O)[C@H]3O)ccc2Cl)cc1 [[18F]-dapagliflozin, (1S)-1,5-anhydro-1-C-{4-chloro-3-[(4-ethoxyphenyl)methyl]phenyl}-4-[18F]-4-deoxy-D-glucitol]
tracer binding site in microPET image (SGLT2 [1]; [7]): binding to the outer cortex of the kidney | 18F-activity in the intestine (SGLT2 [1]; with pre-injection of dapagliflozin or phlorizin): excretion by the liver into bile

Structure (SMILES): CO[C@H]1O[C@H](CO)[C@@H](O)[C@H](O)[C@H]1O [alpha-methyl-D-glucopyranoside]
concentration reached in cells above plasma concentrations (SGLT1): ≤ 800 fold | substrate for GLUTs (GLUTs): not a substrate

Structure (SMILES): CCOc1ccc(Cc2cc([C@@H]3O[C@H](CO)[C@@H](O)[C@H](O[C@@H]4O[C@H](C(=O)O)[C@@H](O)[C@H](O)[C@H]4O)[C@H]3O)ccc2Cl)cc1 [dapagliflozin 3-O-glucuronide]
activity of the metabolite [4]: inactive | plasma level of the metabolite versus native drug [5]: higher than the native drug

[18F]-dapagliflozin binding to the kidney cortex after pre-injection of the substance (SGLT2 [1]; [7]): completely blocked
Structure (SMILES): CCOc1ccc(Cc2cc([C@@H]3O[C@H](CO)[C@@H](O)[C@H](O)[C@H]3O)ccc2Cl)cc1 [dapagliflozin]
weight loss ([6]; over 28-58 weeks): up to 3.5 Kg | reduction in fasting serum glucose [6, 8]: 22±10% | reduction in post-prandial glucose absorption (area under the plasma glucose concentration curve) [6, 8]: 20±10% | sustained urinary glucose excretion [6, 8]: 30-65 gram/day | increase in hematocrit ([6]; type 2 diabetic patients): up to 3% | increase in urine volume ([6]; type 2 diabetic patients): up to 470 ml/day | loss of urinary glucose ([6]; type 2 diabetic patients): 200 to 300 kcal/day | reduction in diastolic blood pressure ([6]; type 2 diabetic patients): 2-5 mm Hg

Structure (SMILES): O=C[C@@H](O)[C@@H](O)[C@H](O)[C@H](O)CO [mannose]
substrate for SGLTs (SGLTs): poor substrates

Structure (SMILES): Cc1c(Cc2ccc(OC(C)C)cc2)c(O[C@@H]2O[C@H](CO)[C@@H](O)[C@H](O)[C@H]2O)nn1C(C)C [remogliflozin]
selectivity among SGLTs (in words) (SGLT2 over SGLT1): markedly increased selectivity for SGLT2
